Reference: patent US20230131111A1, “BIODEGRADABLE POLYIMIDAZOLIUMS AND OLIGOIMIDAZOLIUMS” (Nanyang Technological University, priority 2020, published 2023)

Columns and labels:
3T3 cells = experiment: Mammalian cell cytotoxicity, MTT; type: cell-based, Mouse; conditions: mouse embryonic fibroblast 3T3 cells, MTT
P. aeruginosa O1 biofilm = experiment: MBEC antibiofilm assay; conditions: 4 h treatment
Procedure: (§1) The MBEC was measured using micro-titre plate-based technology. Briefly, 160 μL of MRSA BAA39 or P. aeruginosa O1 suspension (cell density at ˜10^7 CFU/mL) was added into the 96-well growth plate covered by a lid containing MBEC pegs. Biofilm were grown on the peg lid after incubation at 37° C. for 24-48 h. After removing planktonic bacteria by washing with PBS twice, the lid with biofilm were transferred into the challenge plate which contained two-fold serial dilutions of one of P1-P6 solution, with total volume of 200 μL in each well. The treatment was performed at room temperature for 4 h. After that, the peg lid was washed again with PBS and transferred to a recovery plate which contained PBS (200 μL) in each well. Biofilm bacteria that survived were dislodged from the peg lid by sonication for 30±5 min, and detached bacteria were then 10-fold serial-diluted in sterile PBS and spread on agar plates. After incubation at 37° C. for 24 h, the colonies were counted.

MRSA BAA39 biofilm = experiment: MBEC antibiofilm assay; conditions: 4 h treatment
Procedure: as §1

E. coli (EC) = experiment: MIC broth microdilution; type: cell-based, Escherichia coli
MRSA BAA39 = experiment: MIC broth microdilution; type: cell-based, Staphylococcus aureus
S. aureus (SA) = experiment: MIC broth microdilution; type: cell-based, Staphylococcus aureus
P. aeruginosa PAO1 = experiment: MIC90 broth microdilution; type: cell-based, Pseudomonas aeruginosa

Benzalkonium chloride [C3]
IC50 (3T3 cells): 10 µg/mL | antibiofilm potency order (P. aeruginosa O1 biofilm): P(ImC8)>P(ImC8-co-ImC8D)-50%>P(ImC6)>BAC | antibiofilm efficacy rank (MRSA BAA39 biofilm): P(ImC8)>P(ImC8-co-ImC8D)-50%˜P(ImC6)>BAC | MIC EC (E. coli (EC)): 16 µg/mL | MIC MRSA BAA39 (MRSA BAA39): 1 µg/mL | MIC SA (S. aureus (SA)): 1 to 2 µg/mL | MIC PAO1 (P. aeruginosa PAO1): 128 µg/mL
